{
  "source": "paper PMC4982898",
  "about": "“Molecular Design, Structural Analysis and Antifungal Activity of Derivatives of Peptide CGA-N46” (Interdisciplinary Sciences, Computational Life Sciences, 2016)",
  "assay_type_in_all_cases": "cell-based",
  "key": {"[1]": {"system": "Candida krusei (ATCC-6258)", "assay": "Antifungal MIC, broth microdilution with MTT", "settings": "most sensitive yeast", "description": "(§1) Candida glabrata (ATCC-90525), Candida parapsilosis (ATCC-20224), Candida krusei (ATCC-6258), Candida tropicalis (ATCC-20240), Candida albicans (ATCC-2048) were supplied by the Chinese Academy of Medical Sciences.\n(§2) Minimum inhibitory concentrations (MICs) of CGA-N46 and its derivatives against fungi were measured according to a modified version of broth microdilution method of the Clinical and Laboratory Standards Institute (CLSI). Fungi cell’s viability was assessed based on the reduction of 3-[4,5-dimethylthiazolyl]-2,5-diphenyltetrazolium bromide (MTT) into formazan dye by active mitochondria. Briefly, peptides were serially twofold diluted in 20 mM PBS (pH 6.0) to a final concentration between 2 mg mL^−1 and 3.9 µg mL^−1. Subsequently, 100 μL samples was dispensed into the wells of a 96-U-shaped-well plate, and each was mixed with 100 μL of the 2 × inoculum suspension (1–5 × 10^4 CFU mL^−1) of a log-phase fungal culture in Sabouraud (SD) broth. Strains without treatment with peptides were used as negative control. The cultures were incubated at 30 °C without agitation for 16 h. 10 μL of MTT solution (5 mg mL^−1 MTT in PBS) was added to each well, and the plate was further incubated for 4 h. After rinsed, 100 μL of dimethylsulfoxide (DMSO) was added to dissolve the MTT formazan crystals. The inhibition of growth was determined by measuring the absorbance at 570 nm with a microplate reader. The relative cellular activity was calculated according to the following formula: cell survival inhibition rate (\\% of control)= [(OD570of the negative sample-OD570of the treated sample) / OD570of the negative control]×100\\%.\n(§3) Each test was performed in triplicate, and the data were expressed as the mean ± SE."}, "[2]": {"system": "Candida albicans (ATCC-2048)", "assay": "Antifungal MIC, broth microdilution with MTT", "settings": "most sensitive yeast", "description": "as §1, §2, §3"}, "[3]": {"system": "Human red blood cells (RBCs)", "description": "Hemolytic activity was tested according to the method. Briefly, peptides were serially twofold diluted using PBS in 96-well plates to give a volume of 100 μL of the sample solution in each well, and the final concentration of peptides ranged between 2.0 mg mL^−1 and 3.9 μg mL^−1. Human red blood cells (RBCs) from a healthy volunteer were diluted to a concentration of 2 % in PBS. 100 μL of the RBC suspension was added to each well, and the reactions were incubated at 37 °C for 60 min, followed by 150 μL supernatant being transferred to a new 96-well plate (U-shaped well). The release of hemoglobin was determined by measuring the absorbance of the supernatant at 570 nm. RBCs in PBS and 0.1 % (v/v) Triton-X100 were used as the negative and positive controls, respectively. The percentage of hemolysis was calculated using the following formula: Hemolysis rate%=[(OD570of the treated sample-OD570of the negative control)/OD570of the positive control-OD570of the negative control]×100%. Each test was performed in triplicate, and the data were expressed as the mean ± SE."}, "[4]": {"system": "Candida tropicalis (ATCC-20240)", "assay": "Antifungal MIC, broth microdilution with MTT", "settings": "most sensitive yeast", "description": "as §1, §2, §3"}, "[5]": {"system": "Candida glabrata (ATCC-90525)", "assay": "Antifungal MIC, broth microdilution with MTT", "settings": "most sensitive yeast", "description": "as §1, §2, §3"}},
  "data": [
    {"substance": "H-GAKERAHQ-OH [CGA-N8, NH2–GAKERAHQ–COOH]", "values": [
      {"measurement": "MIC C. krusei", "setting": "[1]", "result": 240, "unit": "µM"},
      {"measurement": "MIC C. albicans", "setting": "[2]", "result": 240, "unit": "µM"},
      {"measurement": "5 % Hemolysis", "setting": "[3]", "result": 0.27, "unit": "mmol/L"},
      {"measurement": "hemolytic activity (in words)", "setting": "[3]", "result": "MIC was near the concentration of its 5 % hemolysis"}
    ]},
    {"substance": "H-ALQGAKERAHQQ-OH [CGA-N12, NH2–ALQGAKERAHQQ–COOH]", "values": [
      {"measurement": "MIC C. tropicalis", "setting": "[4]", "result": 75, "unit": "µM"},
      {"measurement": "5 % Hemolysis", "setting": "[3]", "result": 0.39, "unit": "mmol/L"},
      {"measurement": "hemolytic activity (in words)", "setting": "[3]", "result": "weak hemolytic activity at the concentration of MIC"}
    ]},
    {"substance": "H-PMPVSQECFETLRGHERILSILRHQNLLKELQDLALQGAKERAHQQ-OH [CGA-N46]", "values": [
      {"measurement": "5 % Hemolysis", "setting": "[3]", "result": 0.74, "unit": "mmol/L"},
      {"measurement": "hemolytic activity (in words)", "setting": "[3]", "result": "weak hemolytic activity at the concentration of MIC"}
    ]},
    {"substance": "H-LQDLALQGAKERAHQQ-OH [CGA-N16, NH2–LQDLALQGAKERAHQQ–COOH]", "values": [
      {"measurement": "MIC C. glabrata", "setting": "[5]", "result": 280, "unit": "µM"},
      {"measurement": "5 % Hemolysis", "setting": "[3]", "result": 0.056, "unit": "mmol/L"},
      {"measurement": "hemolytic activity (in words)", "setting": "[3]", "result": "strong hemolytic activity"}
    ]},
    {"substance": "H-ERILSILRHQNLLKE-OH [CGA-N15, NH2–ERILSILRHQNLLKE–COOH]", "values": [
      {"measurement": "MIC C. tropicalis", "setting": "[4]", "result": 73, "unit": "µM"},
      {"measurement": "5 % Hemolysis", "setting": "[3]", "result": 0.031, "unit": "mmol/L"},
      {"measurement": "hemolytic activity (in words)", "setting": "[3]", "result": "strong hemolytic activity"}
    ]}
  ]
}
